The record followed here is paper doi:10.1101/2024.06.17.599304v1, “Dizocilpine derivatives with neuroprotective effect lacking the psychomimetic side effects” (biorxiv, 2024).

Structures can show the parent of a compound that is named as a salt.

The target of assay [1] is T1, human recombinant AChE (hAChE) (Homo sapiens, UniProt P22303).
T1 construct: recombinant enzyme purchased from Merck
Put plainly: modified Ellman's method. It is filed as biochemical. Background: DTNB colorimetry detects thiols as they appear.

Assay [2] addresses T2, human plasmatic butyrylcholinesterase (hBChE) (Homo sapiens, UniProt P06276).
T2 construct: gene BCHE
Put plainly: biochemical.

The target of assay [3] is T3, hGluN1/hGluN2A (Homo sapiens, UniProt Q05586+Q12879). Further details: gene GRIN1. Conditions: -60 mV; 1 mM L-glutamate, 100 µM glycine; pH 7.3.
T3 sequence (Q12879 23-1464, other chains not shown): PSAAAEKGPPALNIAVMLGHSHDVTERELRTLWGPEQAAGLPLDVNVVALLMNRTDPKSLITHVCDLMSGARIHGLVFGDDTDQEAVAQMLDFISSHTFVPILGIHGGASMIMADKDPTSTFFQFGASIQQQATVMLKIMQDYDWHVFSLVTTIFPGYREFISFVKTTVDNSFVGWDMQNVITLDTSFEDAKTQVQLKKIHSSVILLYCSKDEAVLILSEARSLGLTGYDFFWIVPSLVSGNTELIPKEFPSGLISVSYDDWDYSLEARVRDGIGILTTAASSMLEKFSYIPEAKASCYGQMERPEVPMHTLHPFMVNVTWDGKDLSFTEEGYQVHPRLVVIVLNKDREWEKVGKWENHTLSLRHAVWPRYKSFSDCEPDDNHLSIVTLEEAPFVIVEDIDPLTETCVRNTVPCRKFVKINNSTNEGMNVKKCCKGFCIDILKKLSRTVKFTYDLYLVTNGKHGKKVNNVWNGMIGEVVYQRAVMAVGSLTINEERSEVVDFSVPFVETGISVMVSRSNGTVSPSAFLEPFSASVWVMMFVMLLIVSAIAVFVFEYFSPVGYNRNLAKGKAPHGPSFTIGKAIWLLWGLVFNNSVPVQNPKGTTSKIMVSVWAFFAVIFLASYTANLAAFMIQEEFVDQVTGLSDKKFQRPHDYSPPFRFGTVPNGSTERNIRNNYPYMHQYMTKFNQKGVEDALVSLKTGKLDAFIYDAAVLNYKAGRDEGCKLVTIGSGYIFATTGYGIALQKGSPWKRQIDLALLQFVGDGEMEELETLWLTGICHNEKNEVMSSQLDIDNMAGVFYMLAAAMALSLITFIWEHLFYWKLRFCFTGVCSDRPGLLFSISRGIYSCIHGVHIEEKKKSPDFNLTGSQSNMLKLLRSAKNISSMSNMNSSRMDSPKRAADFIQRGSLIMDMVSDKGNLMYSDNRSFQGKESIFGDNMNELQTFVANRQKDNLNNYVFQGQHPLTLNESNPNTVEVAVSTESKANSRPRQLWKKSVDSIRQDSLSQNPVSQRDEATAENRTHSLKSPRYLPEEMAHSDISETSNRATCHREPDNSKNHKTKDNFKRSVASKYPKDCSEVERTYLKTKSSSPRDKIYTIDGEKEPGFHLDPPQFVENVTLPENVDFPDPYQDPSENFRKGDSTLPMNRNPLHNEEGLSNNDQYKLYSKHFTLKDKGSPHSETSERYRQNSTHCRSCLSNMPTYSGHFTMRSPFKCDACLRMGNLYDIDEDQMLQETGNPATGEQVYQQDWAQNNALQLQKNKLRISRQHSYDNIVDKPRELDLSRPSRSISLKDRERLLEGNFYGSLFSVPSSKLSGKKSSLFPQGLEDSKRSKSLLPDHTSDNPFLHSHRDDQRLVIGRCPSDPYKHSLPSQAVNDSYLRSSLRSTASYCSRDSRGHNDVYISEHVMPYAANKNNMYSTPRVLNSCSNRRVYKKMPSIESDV
In assay [4] the target is T4, hGluN1/hGluN2B (Homo sapiens, UniProt Q05586+Q13224). The experiment in a line: cell-based. Set-up: gene GRIN1; cDNA vectors for human GluN1-1a and GluN2B co-transfected with GFP in HEK293 cells; diheteromeric receptor; whole-cell voltage-clamp electrophysiology, inhibition of steady-state L-glutamate-induced currents at -60 mV. Particulars: HEK293; -60 mV, 1 mM L-glutamate. On the procedure: (§1) First, we determined the relative inhibition of all novel compounds on the two major diheteromeric NMDA receptor subtypes in the adult cortex – GluN1/GluN2A and GluN1/GluN2B [1] – using a clinically relevant concentration (3 µM). We kept the measured cells at a membrane potential of -60 mV, and the values of relative inhibition by the compounds were calculated from the L-glutamate-induced responses of human versions of the GluN1/GluN2A (hGluN1/hGluN2A) and GluN1/GluN2B (hGluN1/hGluN2B) receptors obtained under steady-state conditions. […] Specifically, in the case of hGluN1/hGluN2A receptors, we obtained relative inhibition values ranging from ∼5% for compound 3h to ∼93% for compound 6f, while for hGluN1/hGluN2B receptors, we measured values ranging from ∼3% for compound 3i to ∼92% for compound 6g at a fixed dose of 3 µM of the tested compound. […] It can be assumed that the positive and negative effects of a given inhibitor of the NMDA receptor in vivo are caused by their affinity and the kinetics of inhibition, in addition to their availability in the CNS. […] In further experiments, we generated concentration-response curves for 6f (0.03-10 µM) and 3l (0.3-300 µM) on both hGluN1/hGluN2A and hGluN1/hGluN2B receptors at negative (-60 mV) and positive (40 mV) membrane potentials (Fig. 2A-D). […] (A, C) Representative whole-cell voltage-clamp recordings of HEK293 cells expressing hGluN1/hGluN2A or hGluN1/hGluN2B receptors showing the inhibitory effects of compound 6f (0.03 - 300 µM) and compound 3l (0.3 - 300 µM) at membrane potentials of 40 mV (A) and -60 mV (C). Glu = 1 mM L-glutamate. (B, D) Normalized inhibitory concentration-response curves for compound 6f and compound 3l for hGluN1/hGluN2A and hGluN1/hGluN2B receptors at membrane potentials of 40 mV (B) and -60 mV (D). Concentration-response curves were fitted using Equation 1; the resulting IC50 values, Hill coefficients, and the numbers of cells measured for each membrane potential are shown in Table 3.
T4 sequence (Q13224 27-1484, other chains not shown): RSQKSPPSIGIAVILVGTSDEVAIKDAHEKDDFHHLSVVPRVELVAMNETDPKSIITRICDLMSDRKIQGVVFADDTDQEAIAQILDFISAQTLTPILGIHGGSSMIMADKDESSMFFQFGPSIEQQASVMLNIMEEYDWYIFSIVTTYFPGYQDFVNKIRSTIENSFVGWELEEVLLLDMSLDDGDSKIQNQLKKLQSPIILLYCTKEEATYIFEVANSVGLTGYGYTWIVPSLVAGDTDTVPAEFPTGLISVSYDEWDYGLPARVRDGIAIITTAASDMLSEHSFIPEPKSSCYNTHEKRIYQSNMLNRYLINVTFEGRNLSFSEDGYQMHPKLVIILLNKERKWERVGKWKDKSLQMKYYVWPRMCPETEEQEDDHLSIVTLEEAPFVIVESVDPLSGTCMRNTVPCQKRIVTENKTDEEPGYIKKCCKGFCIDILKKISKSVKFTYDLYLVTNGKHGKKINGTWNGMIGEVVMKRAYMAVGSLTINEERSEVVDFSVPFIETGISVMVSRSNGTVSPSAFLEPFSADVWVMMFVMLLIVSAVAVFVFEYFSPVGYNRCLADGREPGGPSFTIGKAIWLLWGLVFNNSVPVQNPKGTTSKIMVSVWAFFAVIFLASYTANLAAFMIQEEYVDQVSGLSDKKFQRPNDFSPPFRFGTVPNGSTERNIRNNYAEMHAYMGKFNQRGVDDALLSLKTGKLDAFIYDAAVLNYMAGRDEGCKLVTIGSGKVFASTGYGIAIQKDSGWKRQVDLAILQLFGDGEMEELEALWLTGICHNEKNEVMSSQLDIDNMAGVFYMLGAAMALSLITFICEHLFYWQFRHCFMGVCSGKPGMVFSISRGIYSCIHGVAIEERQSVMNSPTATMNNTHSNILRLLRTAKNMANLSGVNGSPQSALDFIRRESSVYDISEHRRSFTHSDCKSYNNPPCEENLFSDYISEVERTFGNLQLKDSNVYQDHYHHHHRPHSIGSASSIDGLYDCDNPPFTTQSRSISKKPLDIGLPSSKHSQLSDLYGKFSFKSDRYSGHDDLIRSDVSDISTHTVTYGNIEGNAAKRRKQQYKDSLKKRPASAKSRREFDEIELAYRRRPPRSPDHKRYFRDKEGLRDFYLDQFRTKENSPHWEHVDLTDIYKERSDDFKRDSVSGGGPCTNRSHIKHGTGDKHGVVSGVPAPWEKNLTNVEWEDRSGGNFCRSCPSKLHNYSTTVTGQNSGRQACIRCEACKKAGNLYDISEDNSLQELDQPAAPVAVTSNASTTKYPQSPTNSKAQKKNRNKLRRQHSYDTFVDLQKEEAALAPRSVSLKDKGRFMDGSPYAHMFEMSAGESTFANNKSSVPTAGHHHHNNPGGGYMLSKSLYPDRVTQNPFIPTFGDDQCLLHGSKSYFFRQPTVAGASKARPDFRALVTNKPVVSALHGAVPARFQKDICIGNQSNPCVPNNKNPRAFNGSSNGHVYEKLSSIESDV

The target in assay [5] is T3, hGluN1/hGluN2A. Put plainly: cell-based. Set-up: gene GRIN1; cDNA vectors for human GluN1-1a and GluN2A co-transfected with GFP in HEK293 cells; diheteromeric receptor; whole-cell voltage-clamp electrophysiology, inhibition of steady-state L-glutamate-induced currents at -60 mV. Conditions: HEK293; -60 mV, 1 mM L-glutamate. How it is done:
as §1

Assay [6] concerns the target T4, hGluN1/hGluN2B. Set-up: gene GRIN1. Particulars: -60 mV; 1 mM L-glutamate, 100 µM glycine; pH 7.3.

T1 sequence (P22303 32-614): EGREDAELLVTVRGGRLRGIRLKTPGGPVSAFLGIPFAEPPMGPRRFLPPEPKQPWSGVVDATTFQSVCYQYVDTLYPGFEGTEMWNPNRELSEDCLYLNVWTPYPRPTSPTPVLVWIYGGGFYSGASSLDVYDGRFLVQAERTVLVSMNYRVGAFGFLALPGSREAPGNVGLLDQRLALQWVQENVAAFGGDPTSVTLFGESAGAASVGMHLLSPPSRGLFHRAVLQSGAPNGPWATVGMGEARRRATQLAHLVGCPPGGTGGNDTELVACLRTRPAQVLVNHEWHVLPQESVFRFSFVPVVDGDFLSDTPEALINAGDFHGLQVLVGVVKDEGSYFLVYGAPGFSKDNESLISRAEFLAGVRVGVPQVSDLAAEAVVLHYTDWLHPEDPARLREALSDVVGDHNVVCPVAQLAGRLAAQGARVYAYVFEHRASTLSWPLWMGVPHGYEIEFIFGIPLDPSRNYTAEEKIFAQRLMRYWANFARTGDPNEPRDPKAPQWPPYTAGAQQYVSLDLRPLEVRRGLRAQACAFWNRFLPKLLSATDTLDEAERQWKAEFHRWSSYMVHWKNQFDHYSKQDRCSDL
T2 sequence (P06276 29-602): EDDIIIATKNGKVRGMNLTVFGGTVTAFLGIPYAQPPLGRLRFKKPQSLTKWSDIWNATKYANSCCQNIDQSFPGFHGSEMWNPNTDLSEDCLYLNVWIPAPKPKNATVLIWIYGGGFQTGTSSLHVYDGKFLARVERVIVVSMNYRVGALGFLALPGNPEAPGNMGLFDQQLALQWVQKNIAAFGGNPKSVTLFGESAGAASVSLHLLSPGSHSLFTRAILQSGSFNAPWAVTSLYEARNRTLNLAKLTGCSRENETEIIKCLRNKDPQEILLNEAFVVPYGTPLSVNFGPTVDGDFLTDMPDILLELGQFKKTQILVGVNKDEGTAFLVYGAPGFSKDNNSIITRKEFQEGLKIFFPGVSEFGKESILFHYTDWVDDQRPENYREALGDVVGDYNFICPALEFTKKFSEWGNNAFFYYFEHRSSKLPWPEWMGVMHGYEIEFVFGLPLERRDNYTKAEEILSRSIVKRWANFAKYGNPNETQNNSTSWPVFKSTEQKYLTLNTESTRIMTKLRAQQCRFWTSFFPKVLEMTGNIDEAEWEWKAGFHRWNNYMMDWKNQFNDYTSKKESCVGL

For `CNC1c2ccccc2CCc2ccccc21` [3a, N-methyl-10,11-dihydro-5H-dibenzo[a,d][7]annulen-5-amine hydrochloride], the IC50 in assay [1] and in assay [2] was above 100 µM each time. The “RI (%) at 3 μM” value on hGluN1/hGluN2A [3] worked out at 82.34 ± 3.25%. For the same compound, at 3 µM the inhibition against hGluN1/hGluN2B [4] was 71 ± 1.75%.

For `CCNC1c2ccccc2CCc2ccccc21` [3b, N-ethyl-10,11-dihydro-5H-dibenzo[a,d][7]annulen-5-amine hydrochloride], the IC50 in assay [1] and in assay [2] was above 100 µM each time. Further, the inhibition at 3 µM against hGluN1/hGluN2A [5] was found to be 34 ± 4.6%; at hGluN1/hGluN2B [4], 51.8 ± 3.39%.

For `CC(C)NC1c2ccccc2CCc2ccccc21` [3c, N-isopropyl-10,11-dihydro-5H-dibenzo[a,d][7]annulen-5-amine hydrochloride], the IC50 in assay [1] and in assay [2] was above 100 µM throughout. For the same compound, the inhibition at 3 µM was 52.2 ± 5.23% against hGluN1/hGluN2A [5] and 76.9 ± 3.57% on hGluN1/hGluN2B [4].

As for `c1ccc2c(c1)CCc1ccccc1C2NC1CC1` [3d, N-cyclopropyl-10,11-dihydro-5H-dibenzo[a,d][7]annulen-5-amine hydrochloride], the IC50 in assay [1] and in assay [2] was above 100 µM throughout. For the same compound, the inhibition at 3 µM came to 40.1 ± 3.42% on hGluN1/hGluN2A [5] and 53.6 ± 3.16% at hGluN1/hGluN2B [4].

For `CCCCNC1c2ccccc2CCc2ccccc21` [3e, N-butyl-10,11-dihydro-5H-dibenzo[a,d][7]annulen-5-amine hydrochloride], the half-inhibitory concentration (IC50) in assay [1] and in assay [2] was above 100 µM throughout. The inhibition at 3 µM on hGluN1/hGluN2A [5] came to 76.4 ± 4.03%; on hGluN1/hGluN2B [4] it was 85.8 ± 2.19%.

In the case of `CC(C)CNC1c2ccccc2CCc2ccccc21` [3f, N-isobutyl-10,11-dihydro-5H-dibenzo[a,d][7]annulen-5-amine hydrochloride], the half-inhibitory concentration (IC50) in assay [1] and in assay [2] was above 100 µM each time. For the same compound, the “RI (%) at 3 μM” value on hGluN1/hGluN2B [6] came out at 91.62 ± 0.99%. The compound also displayed an inhibition at 3 µM against hGluN1/hGluN2A [5] of 76.8 ± 2.99%.

In turn, `c1ccc2c(c1)CCc1ccccc1C2NC1CCCCC1` [3g, N-cyclohexyl-10,11-dihydro-5H-dibenzo[a,d][7]annulen-5-amine hydrochloride] showed an IC50 in assay [2] of 14.4 ± 1.3 µM. The “RI (%) at 3 μM” value on hGluN1/hGluN2B [6] stood at 85.95 ± 3.13%. The compound also came in with an inhibition at 3 µM at hGluN1/hGluN2A [5] of 79.4 ± 2.06%.

Consider `c1ccc2c(c1)CCc1ccccc1C2N1CCCCC1` [3h, 1-(10,11-dihydro-5H-dibenzo[a,d][7]annulen-5-yl)piperidine hydrochloride], for which the IC50 in assay [1] and in assay [2] was above 100 µM throughout. Moreover, the inhibition at 3 µM against hGluN1/hGluN2A [5] came to 5.4 ± 1.39%; against hGluN1/hGluN2B [4] it was 5.2 ± 1.56%.

Regarding `c1ccc2c(c1)CCc1ccccc1C2N1CCOCC1` [3i, 4-(10,11-dihydro-5H-dibenzo[a,d][7]annulen-5-yl)morpholine hydrochloride], the IC50 in assay [1] and in assay [2] was above 100 µM in each case. Further, the inhibition at 3 µM on hGluN1/hGluN2A [5] stood at 6.78 ± 1.67%; against hGluN1/hGluN2B [4], 3.43 ± 1.33%.

As to `COCCNC1c2ccccc2CCc2ccccc21` [3j, N-(2-methoxyethyl)-10,11-dihydro-5H-dibenzo[a,d][7]annulen-5-amine hydrochloride], the IC50 in assay [1] and in assay [2] was above 100 µM throughout. The results for the inhibition at 3 µM on hGluN1/hGluN2A [5] and at hGluN1/hGluN2B [4] were 34.9 ± 4.8% and 66.6 ± 3.9%, respectively.

In the case of `c1ccc2c(c1)CCc1ccccc1C2N1CCCC1` [3k, 1-(10,11-dihydro-5H-dibenzo[a,d][7]annulen-5-yl)pyrrolidine hydrochloride], the IC50 in assay [1] and in assay [2] was above 100 µM throughout. In addition, the inhibition at 3 µM on hGluN1/hGluN2A [5] was 49.8 ± 3.27%; on hGluN1/hGluN2B [4] it was 62.1 ± 3.44%.

As for `CN1CCN(C2c3ccccc3CCc3ccccc32)CC1` [3m, 1-(10,11-dihydro-5H-dibenzo[a,d][7]annulen-5-yl)-4-methylpiperazine dihydrochloride], the IC50 in assay [1] and in assay [2] was above 100 µM each time. Also, the inhibition at 3 µM was 9.7 ± 2.41% against hGluN1/hGluN2A [5] and 9.49 ± 2.17% at hGluN1/hGluN2B [4].

Take `CCN(CC)C1c2ccccc2CCc2ccccc21` [3n, N,N-diethyl-10,11-dihydro-5H-dibenzo[a,d][7]annulen-5-amine hydrochloride]: the half-maximal inhibitory concentration (IC50) in assay [1] and in assay [2] was above 100 µM throughout. For the same compound, the results for the inhibition at 3 µM at hGluN1/hGluN2A [5] and on hGluN1/hGluN2B [4] were 68.4 ± 4.84% and 75 ± 3.14%, respectively.

With `CCN1CCN(C2c3ccccc3CCc3ccccc32)CC1` [3o, 1-(10,11-dihydro-5H-dibenzo[a,d][7]annulen-5-yl)-4-ethylpiperazine dihydrochloride], the IC50 in assay [1] and in assay [2] was above 100 µM in each case. Moreover, the inhibition at 3 µM at hGluN1/hGluN2A [5] turned out to be 7.64 ± 0.84%; at hGluN1/hGluN2B [4], 5.22 ± 1.49%.

On to `CNC1c2ccccc2C=Cc2ccccc21` [6a, N-methyl-5H-dibenzo[a,d][7]annulen-5-amine hydrochloride], for which the half-inhibitory concentration (IC50) in assay [1] and in assay [2] was above 100 µM each time. The inhibition at 3 µM at hGluN1/hGluN2A [5] amounted to 54.3 ± 3.11%; against hGluN1/hGluN2B [4] it was 68.9 ± 3.57%.

Take `CCNC1c2ccccc2C=Cc2ccccc21` [6b, N-ethyl-5H-dibenzo[a,d][7]annulen-5-amine hydrochloride]: the IC50 in assay [1] and in assay [2] was above 100 µM throughout. The inhibition at 3 µM stood at 39.9 ± 4.78% at hGluN1/hGluN2A [5] and 59.9 ± 3.15% on hGluN1/hGluN2B [4].

Regarding `CC(C)NC1c2ccccc2C=Cc2ccccc21` [6c, N-isopropyl-5H-dibenzo[a,d][7]annulen-5-amine hydrochloride], the IC50 in assay [1] and in assay [2] was above 100 µM in each case. Also, the inhibition at 3 µM came to 75.6 ± 2.36% at hGluN1/hGluN2A [5] and 76 ± 2.22% on hGluN1/hGluN2B [4].

As for `C1=Cc2ccccc2C(NC2CC2)c2ccccc21` [6d, N-cyclopropyl-5H-dibenzo[a,d][7]annulen-5-amine hydrochloride], the IC50 in assay [1] and in assay [2] was above 100 µM each time. The inhibition at 3 µM against hGluN1/hGluN2A [5] is 45 ± 3.55%; against hGluN1/hGluN2B [4], 57.2 ± 3.27%.

With `CCCCNC1c2ccccc2C=Cc2ccccc21` [6e, N-butyl-5H-dibenzo[a,d][7]annulen-5-amine hydrochloride], the IC50 in assay [1] and in assay [2] was above 100 µM throughout. Further, the inhibition at 3 µM against hGluN1/hGluN2A [5] came to 81.1 ± 2.62%; against hGluN1/hGluN2B [4], 79.2 ± 2.84%.

As for `C1=Cc2ccccc2C(N2CCOCC2)c2ccccc21` [6i, 4-(5H-dibenzo[a,d][7]annulen-5-yl)morpholine hydrochloride], the IC50 in assay [1] and in assay [2] was above 100 µM throughout. Also, the figures for the inhibition at 3 µM against hGluN1/hGluN2A [5] and against hGluN1/hGluN2B [4] were 31.9 ± 4.16% and 57.6 ± 3.47%, respectively.

In the case of `COCCNC1c2ccccc2C=Cc2ccccc21` [6j, N-(2-methoxyethyl)-5H-dibenzo[a,d][7]annulen-5-amine hydrochloride], the IC50 in assay [1] and in assay [2] was above 100 µM each time. For the same compound, the inhibition at 3 µM against hGluN1/hGluN2A [5] stood at 35.6 ± 1.09%; on hGluN1/hGluN2B [4], 60 ± 4.39%.

For `C1=Cc2ccccc2C(N2CCCC2)c2ccccc21` [6k, 1-(5H-dibenzo[a,d][7]annulen-5-yl)pyrrolidine hydrochloride], the IC50 in assay [1] and in assay [2] was above 100 µM in each case. Moreover, the inhibition at 3 µM at hGluN1/hGluN2A [5] is 48.6 ± 2.99%; against hGluN1/hGluN2B [4] it was 85.53 ± 0.21%.

In the case of `OCCNC1c2ccccc2C=Cc2ccccc21` [6l, 2-((5H-dibenzo[a,d][7]annulen-5-yl)amino)ethanol hydrochloride], the half-maximal inhibitory concentration (IC50) in assay [1] and in assay [2] was above 100 µM each time. In addition, the results for the inhibition at 3 µM at hGluN1/hGluN2A [5] and at hGluN1/hGluN2B [4] were 38.2 ± 3.8% and 48.8 ± 4.13%, respectively.

In general, IC50 refers to the midpoint of a concentration-inhibition curve. As a reminder, the inhibition is the change of the read-out against control, counted positive when it falls.
